Assay results taken from ChEMBL document CHEMBL4834425, “Spirombandakamine A3 and Cyclombandakamines A8 and A9, Polycyclic Naphthylisoquinoline Dimers, with Antiprotozoal Activity, from a Congolese Ancistrocladus Plant” (J Nat Prod, 2021).

Assays:
[1] = system: Leishmania donovani; test: Antileishmanial activity against Leishmania donovani MHOM/ET/67/L82 amastigotes assessed as inhibition of parasite growth measured after 72 hrs by alamar blue dye based fluorometric analysis; assay type: functional, organism-based; conditions: MHOM/ET/67/L82, 72 h
[2] = system: L6; test: Cytotoxicity against rat L6 cells measured after 72 hrs by alamar blue dye based fluorometric analysis; assay type: cell-based; conditions: L6, 72 h
[3] = system: Trypanosoma cruzi; test: Antitrypanosomal activity against amastigote form of Trypanosoma cruzi Tulahuen C4 expressing LacZ infected in rat L6 cells assessed as inhibition of parasite growth incubated for 96 hrs by CPRG/Nonidet reagent based […] analysis; assay type: functional, organism-based; conditions: Tulahuen C4, L6, 96 h
[4] = Selectivity index, ratio of IC50 for cytotoxicity against rat L6 cells to IC50 for antiplasmodial activity against Plasmodium falciparum NF54; assay type: toxicity, cell-based; conditions: read-out: Ratio IC50
[5] = system: Plasmodium falciparum; test: Antiplasmodial activity against Plasmodium falciparum NF54 erythrocytic stages assessed as inhibition of parasite growth after 48 hrs by liquid scintillation counting method; assay type: functional, organism-based; conditions: NF54, 48 h
[6] = system: Trypanosoma brucei rhodesiense; test: Antitrypanosomal activity against bloodstream form of Trypanosoma brucei rhodesiense STIB900 assessed as inhibition of parasite growth incubated for 72 hrs by Alamar blue dye-based fluorometric analysis; assay type: functional, organism-based; conditions: STIB900, 72 h

IC50 [3] [µM] | IC50 [6] [µM] | Structure (SMILES) | IC50 [1] [µM] | IC50 [2] [µM] | selectivity ratio [4] | IC50 [5] [µM]
35.6 | 4.08 | COc1ccc2c3c1C(=O)C[C@]1(C)Oc4c(cc(-c5c(O)cc(OC)c6c5C[C@H](C)N(C)[C@@H]6C)c5cc(C)cc(OC)c45)[C@]31Oc1cc(OC)c3c(c1-2)C[C@@H](C)N[C@H]3C | 27.9 | 19.3 | 127 | 0.152
17.3 | 0.292 | COc1ccc2c3c1C(=O)C[C@]31c3cc(-c4c(O)cc(OC)c5c4C[C@@H](C)N[C@@H]5C)c4cc(C)cc(OC)c4c3O[C@]1(C)Oc1cc(OC)c3c(c1-2)C[C@@H](C)N(C)[C@@H]3C | > 100 | 19.3 | 272 | 0.071
23.6 | 0.738 | COc1ccc2c3c1C(=O)C[C@]1(C)Oc4c(cc(-c5c(O)cc(OC)c6c5C[C@H](C)N(C)[C@@H]6C)c5cc(C)cc(OC)c45)[C@]31Oc1cc(OC)c3c(c1-2)C[C@@H](C)N[C@@H]3C | 54.2 | 16.8 | 282 | 0.059
2.77 | – | O=C(Cn1ccnc1[N+](=O)[O-])NCc1ccccc1 [BENZNIDAZOLE] | – | – | – | –
– | – | CCCCCCCCCCCCCCCCOP(=O)([O-])OCC[N+](C)(C)C [MILTEFOSINE] | 0.39 | – | – | –
